Target: EthR-VP16 (Mycobacterium bovis, UniProt Q7TVI1)
Experiment: cell-based
Set-up: species or system M. bovis
Details: 48 h, read-out: % EthR activity (w/o = 100%); ± std. dev. of the mean (n = 3)

Chain of EthR-VP16 (Q7TVI1 whole entry, looked up): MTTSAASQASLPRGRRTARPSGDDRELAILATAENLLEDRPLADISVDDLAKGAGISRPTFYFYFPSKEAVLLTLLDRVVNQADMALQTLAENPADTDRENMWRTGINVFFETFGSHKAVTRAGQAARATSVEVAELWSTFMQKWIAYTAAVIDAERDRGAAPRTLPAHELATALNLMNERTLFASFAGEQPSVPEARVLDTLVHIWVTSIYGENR

Row | Structure (SMILES) | remaining activity at 0.5 µM | remaining activity at 1.5 µM | remaining activity at 3 µM | remaining activity at 6 µM | remaining activity at 15 µM | remaining activity at 30 µM | remaining activity at 60 µM | remaining activity at 300 µM
1 | CCCC(=O)N1CCN(Cc2ccccc2)CC1 [Example 1, 1-(4-Benzylpiperazin-1-yl)butan-1-one] | 72.5 ± 1.65% | 76.5 ± 17.5% | 68.7 ± 2.79% | 73.2 ± 1.19% | 72.6 ± 6.82% | 64.1 ± 14% | 53.1 ± 7.78% | 27.3 ± 5.27%
2 | CCCC(=O)N1CCOC(c2ccccc2)C1 (stereo not drawn) [Example 3, 1-(2-Phenylmorpholino)butan-1-one] | 85.5 ± 2.57% | 96.82 ± 0.67% | 84.4 ± 6.37% | 90.1 ± 6.44% | 98.4 ± 4.51% | 86.5 ± 4.1% | 81.9 ± 8.6% | 40.2 ± 4.65%
3 | CCCC(=O)N1CCC(c2ccccc2)C1 (stereo not drawn) [Example 13, 1-(3-Phenylpyrrolidin-1-yl)butan-1-one] | 30.4 ± 3.98% | 17.7 ± 2.01% | 11 ± 2.88% | 10.9 ± 1.45% | 12.4 ± 0.99% | 14.5 ± 7.8% | 10.8 ± 1.34% | 12 ± 1.27%
4 | O=C(Cc1cccs1)N1CCOC(c2ccccc2)C1 (stereo not drawn) [Example 14, 1-(2-Phenylmorpholin-4-yl)-2-(thiophen-2-yl)ethan-1-one] | 106 ± 19.8% | 86.2 ± 1.36% | 85.9 ± 6.26% | 74.8 ± 1.22% | 60.5 ± 1.32% | 35.4 ± 5.3% | 25.5 ± 3.82% | 9.16 ± 1.37%
5 | O=C(CCc1ccco1)N1CCN(Cc2ccccc2)CC1 [Example 18, 1-(4-Benzylpiperazin-1-yl)-3-(furan-2-yl)propan-1-one] | 91.9 ± 3.57% | 80.7 ± 8.89% | 81.4 ± 15.9% | 59.3 ± 1.2% | 44.2 ± 2.35% | 11.2 ± 1.68% | 12.4 ± 1.85% | 1.74 ± 0.26%
6 | CC(C)CC(=O)N1CCOC(c2ccccc2)C1 (stereo not drawn) [Example 19, 3-Methyl-1-(2-phenylmorpholin-4-yl)butan-1-one] | 95.6 ± 9.07% | 102 ± 4.13% | 95.9 ± 9.02% | 96.4 ± 13.5% | 76 ± 6.56% | 35.2 ± 5.28% | 33.5 ± 5.96% | 27.6 ± 0.37%
7 | CC(C)(C)CC(=O)N1CCOC(c2ccccc2)C1 (stereo not drawn) [Example 20, 3,3-Dimethyl-1-(2-phenylmorpholin-4-yl)butan-1-one] | 96.6 ± 11.1% | 90.9 ± 14% | 88.2 ± 8.63% | 89 ± 4.56% | 75.5 ± 6.63% | 43.7 ± 3.21% | 33 ± 6.41% | 35.5 ± 1.37%
8 | O=C(CCc1ccccc1)N1CCOC(c2ccccc2)C1 (stereo not drawn) [Example 21, 3-Phenyl-1-(2-phenylmorpholin-4-yl)propan-1-one] | 108 ± 7.36% | 98.5 ± 16.4% | 73.5 ± 7.58% | 60.2 ± 8.98% | 40.8 ± 4.81% | 8.33 ± 5.61% | 6.29 ± 1.05% | 1.34 ± 1.58%
9 | O=C(CCc1ccccc1)N1CCC1c1ccccc1 (stereo not drawn) [Example 22, 3-Phenyl-1-(2-phenylazetidin-1-yl)propan-1-one] | 90 ± 15.2% | 106 ± 10% | 97.4 ± 5.01% | 90.2 ± 8.48% | 77.8 ± 4.33% | 59.4 ± 4.5% | 33.2 ± 2.46% | 6.34 ± 0.89%
10 | O=C(CCCc1ccccc1)N1CCC1c1ccccc1 (stereo not drawn) [Example 23, 4-Phenyl-1-(2-phenylazetidin-1-yl)butan-1-one] | 96.3 ± 10% | 102 ± 12.3% | 101 ± 9.55% | 90.1 ± 9.21% | 86.8 ± 5.76% | 81.5 ± 5.22% | 49.4 ± 1.49% | 6.18 ± 2.53%
11 | O=C(CCc1ccccc1)N1CC(Cc2ccccc2)C1 [Example 25, 1-(3-Benzylazetidin-1-yl)-3-phenylpropan-1-one] | 86.8 ± 9.98% | 88.5 ± 8.12% | 69.5 ± 4.27% | 48 ± 5.86% | 28.7 ± 3.22% | 19.5 ± 0.89% | 14.2 ± 3.23% | 6.03 ± 2%
12 | O=C(CCCc1ccccc1)N1CC(Cc2ccccc2)C1 [Example 27, 1-(3-Benzylazetidin-1-yl)-4-phenylbutan-1-on] | 59.6 ± 2.49% | 42.6 ± 1.49% | 37.9 ± 5.47% | 31.3 ± 3.58% | 31.7 ± 1.36% | 26.3 ± 9.65% | 17.5 ± 4.51% | 15.3 ± 2.79%
13 | CCCCC(=O)N1CCN(Cc2ccccc2)CC1 [Example 28, 1-(4-Benzylpiperazin-1-yl)pentan-1-one] | 97.1 ± 9.36% | 81.5 ± 3.01% | 59.4 ± 4.9% | 46.2 ± 2.55% | 38.3 ± 2.21% | 18.5 ± 3.64% | 11.7 ± 2.77% | 10.2 ± 1.94%
14 | CCCCCC(=O)N1CCN(Cc2ccccc2)CC1 [Example 29, 1-(4-Benzylpiperazin-1-yl)hexan-1-one] | 85.4 ± 9.96% | 56 ± 5.54% | 36.5 ± 3.17% | 26.5 ± 0.73% | 16.9 ± 0.73% | 16.7 ± 3.59% | 10 ± 2.93% | 12.9 ± 4.6%
15 | CCCCC(=O)N1CCOC(c2ccccc2)C1 (stereo not drawn) [Example 30, 1-(2-Phenylmorpholin-4-yl)pentan-1-one] | 112 ± 16.1% | 111 ± 17.1% | 101 ± 5.87% | 90.5 ± 5.55% | 69.2 ± 8.71% | 43.3 ± 2.01% | 26.9 ± 2.34% | 14.9 ± 3%
16 | CCCCCC(=O)N1CCOC(c2ccccc2)C1 (stereo not drawn) [Example 31, 1-(2-Phenylmorpholin-4-yl)hexan-1-one] | 106 ± 17.5% | 103 ± 16.4% | 94.1 ± 15.9% | 63.7 ± 5.26% | 33.2 ± 1.27% | 25 ± 4.22% | 17.8 ± 4.01% | 15 ± 2.11%
17 | CCCCC(=O)N1CCC(c2ccccc2)C1 (stereo not drawn) [Example 32, 1-(3-Phenylpyrrolidin-1-yl)pentan-1-one] | 12.5 ± 5.97% | 10.7 ± 2.55% | 10.4 ± 2.69% | 9.96 ± 3.44% | 5.65 ± 1.1% | 8.77 ± 1.57% | 8.89 ± 1.74% | 1.56 ± 0.8%
18 | CCCCCC(=O)N1CCC(c2ccccc2)C1 (stereo not drawn) [Example 33, 1-(3-Phenylpyrrolidin-1-yl)hexan-1-one] | 11.4 ± 3.47% | 14.9 ± 5.68% | 5.8 ± 2.33% | 3.83 ± 1.01% | 4.58 ± 1.34% | 5.01 ± 0.8% | 5.24 ± 2.58% | 2.78 ± 1.33%

— patent publication US8912329B2 (priority 2009, dated 2014)
